Measurements reported in publication PMC11725774 (Cancer Research Communications, 2025).
Read-outs that look alike come from different tables or passages of the source.

Columns and labels:
TUS/R line 2 (MOLM-14) = assay: Growth inhibition of TUS-resistant subline; format: cell-based; settings: Homo sapiens, MOLM-14, read-out: IC50 (nmol/L), Mean ± SEM, TUS/R line 2
[1] = Repeat daily dose toxicity in dogs; format: in vivo
From the text: (§1) In both species, all adverse events were reversible. There were no alterations in clinical chemistry parameters. Neuropharmacology and respiratory function assessment in rats disclosed no concerns.

MOLM-14 cells (parental) = assay: Growth inhibition of AML cell line; format: cell-based, human; settings: Homo sapiens, MOLM-14
Procedure: (§2) MV-4-11 cells expressing NRAS^G12D were prepared by transduction with a lentiviral vector encoding the NRAS^G12D mutation. Assays using a panel of parental Ba/F3 into which an additional copy of either WT or a mutant form of FLT3 was introduced were performed at Kyinno Biotechnology Co., Ltd. All cell lines were short tandem repeat authenticated at ATCC or at DSMZ when originally obtained, and no further authentication was done after receipt of the cells in the laboratory.
(§3) Assays using Ba/F3 cells expressing WT and mutant forms of FLT3 were performed by Kyinno Biotechnology. The cells were cultured in the medium recommended by the source for each cell line. Growth inhibition assays were performed using either Cell Titer 96 Aqueous One Solution Cell Proliferation assay (Promega, # G3581) or CCK8 (Dojindo, # CK-04). […] IC50 values were determined from growth inhibition curves fitted using GraphPad Prism and a nonlinear regression model with sigmoidal dose response. Unless otherwise indicated, data are presented as mean ± SEM.

TUS/R MOLM-14 cells = assay: Growth inhibition of TUS-resistant sublines versus parental; format: cell-based, human; settings: Homo sapiens, MOLM-14; read-out: IC50, cells with acquired resistance
[2] = system: Ba/F3 cells expressing various mutant forms of FLT3; assay: Growth inhibition of Ba/F3 cells; format: cell-based, murine; settings: Mus musculus, BaF3; Ba/F3, various mutant forms of FLT3, range
Procedure: as §2, with “MV-4-11 (CRL-9591), HS-5 (CRL-3611), and KG1a (CCL-246.1) cells were obtained from ATCC. MOLM-13 (ACC 554) and MOLM-14 (ACC 777) were obtained from DSMZ (Deutsche Sammlung von Mikroorganismen und Zellkulturen). MOLM-14 cells contain one WT FLT3 allele and one FLT3-ITD allele. MOLM-14 FLT3-ITD/F691 cells were prepared by transfection of MOLM-14 cells with a vector expressing the FLT3 TKD F691L mutation. MV-4-11” for “MV-4-11”
(§4) Assays using Ba/F3 cells expressing WT and mutant forms of FLT3 were performed by Kyinno Biotechnology. The cells were cultured in the medium recommended by the source for each cell line. Growth inhibition assays were performed using either Cell Titer 96 Aqueous One Solution Cell Proliferation assay (Promega, # G3581) or CCK8 (Dojindo, # CK-04). […] IC50 values were determined from growth inhibition curves fitted using GraphPad Prism and a nonlinear regression model with sigmoidal dose response. […]

[3] = Repeat daily dose toxicity and safety pharmacology in rats; format: in vivo
From the text: as §1

[4] = system: Ba/F3 cells FLT3 ITD/D835Y; assay: Growth inhibition of Ba/F3 cells; format: cell-based, murine; settings: Mus musculus, BaF3
Procedure: as §2, §3

[5] = system: Ba/F3 cells FLT3 ITD/F691L; assay: Growth inhibition of Ba/F3 cells; format: cell-based, murine; settings: Mus musculus, BaF3
Procedure: as §2, §3

Ba/F3 cells FLT3 WT = assay: Growth inhibition of Ba/F3 cells; format: cell-based, murine
Procedure: as §2, §3

Ba/F3 cells FLT3 D835Y = assay: Growth inhibition of Ba/F3 cells; format: cell-based, murine; settings: Mus musculus
Procedure: as §2, §3

Ba/F3 cells FLT3 ITD = assay: Growth inhibition of Ba/F3 cells; format: cell-based, murine; settings: Mus musculus
Procedure: as §2, §3

[6] = Metabolism by liver microsomes; format: in vitro ADME, human
[7] = system: MV-4-11 NRAS G12D Clone 1; assay: Growth inhibition of NRAS G12D clone; format: cell-based, human
Procedure: as §2, §3

[8] = system: MV-4-11 NRAS G12D Clone 4; assay: Growth inhibition of NRAS G12D clone; format: cell-based, human; settings: Homo sapiens, MV4-11; MV-4-11 NRAS G12D, high expression; mean ± SEM; read-out: GI50 (nM) Clone 4
Procedure: as §2, §3

[9] = system: MV-4-11 NRAS G12D Clone 15; assay: Growth inhibition of NRAS G12D clone; format: cell-based, human
Procedure: as §2, §3

MOLM-13 cells = assay: Growth inhibition of AML cell line; format: cell-based; settings: Homo sapiens, mean ± SD
Procedure: as §2, §3

CYP2C9 = CYP2C9 (Homo sapiens, UniProt P11712); assay: CYP inhibition; format: in vitro ADME
CYP2C8 = CYP2C8 (Homo sapiens, UniProt P10632); assay: CYP inhibition; format: in vitro ADME
[10] = system: AML cell lines expressing FLT3 ITD (MV-4-11, MOLM-13, and MOLM-14); assay: Growth inhibition of AML cell lines; format: cell-based; settings: Homo sapiens; range over MV-4-11, MOLM-13, MOLM-14
Procedure: as §2, with “MV-4-11 (CRL-9591), HS-5 (CRL-3611), and KG1a (CCL-246.1) cells were obtained from ATCC. MOLM-13 (ACC 554) and MOLM-14 (ACC 777) were obtained from DSMZ (Deutsche Sammlung von Mikroorganismen und Zellkulturen). MOLM-14 cells contain one WT FLT3 allele and one FLT3-ITD allele. MOLM-14 FLT3-ITD/F691 cells were prepared by transfection of MOLM-14 cells with a vector expressing the FLT3 TKD F691L mutation. MV-4-11” for “MV-4-11”
as §4

[11] = 13 to […]-fold increase in NRAS G12D expression
[12] = Homo sapiens, MV4-11, MV-4-11 NRAS G12D, mean ± SEM

Sequence of CYP2C9 (P11712 whole entry): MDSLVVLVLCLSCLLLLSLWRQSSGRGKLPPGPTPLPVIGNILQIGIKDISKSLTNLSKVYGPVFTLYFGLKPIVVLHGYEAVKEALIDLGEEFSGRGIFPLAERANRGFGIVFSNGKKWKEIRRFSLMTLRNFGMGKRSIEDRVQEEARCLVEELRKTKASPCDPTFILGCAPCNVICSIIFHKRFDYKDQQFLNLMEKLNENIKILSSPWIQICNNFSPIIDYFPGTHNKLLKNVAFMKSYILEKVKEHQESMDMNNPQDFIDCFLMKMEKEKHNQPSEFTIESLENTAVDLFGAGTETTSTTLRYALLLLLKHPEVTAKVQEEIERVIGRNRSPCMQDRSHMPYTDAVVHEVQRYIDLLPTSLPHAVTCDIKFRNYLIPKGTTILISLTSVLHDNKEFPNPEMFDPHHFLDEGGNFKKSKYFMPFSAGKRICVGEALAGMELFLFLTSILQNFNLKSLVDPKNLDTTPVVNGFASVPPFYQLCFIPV
Sequence of CYP2C8 (P10632 whole entry): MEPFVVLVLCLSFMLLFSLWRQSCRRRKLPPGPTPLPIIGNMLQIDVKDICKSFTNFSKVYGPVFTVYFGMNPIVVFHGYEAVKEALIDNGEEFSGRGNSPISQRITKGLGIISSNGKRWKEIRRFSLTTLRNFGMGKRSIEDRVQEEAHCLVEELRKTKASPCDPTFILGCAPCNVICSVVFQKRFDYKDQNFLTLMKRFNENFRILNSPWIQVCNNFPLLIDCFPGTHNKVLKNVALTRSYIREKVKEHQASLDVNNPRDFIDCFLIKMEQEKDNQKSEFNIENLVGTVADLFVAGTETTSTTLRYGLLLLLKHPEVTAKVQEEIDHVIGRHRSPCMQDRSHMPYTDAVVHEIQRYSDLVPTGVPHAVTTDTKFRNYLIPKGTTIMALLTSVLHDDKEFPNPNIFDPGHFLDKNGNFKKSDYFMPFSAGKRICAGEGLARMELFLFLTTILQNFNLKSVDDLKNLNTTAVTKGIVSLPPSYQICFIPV

Cc1ccc2c(-c3nc(Nc4cc(CN5C[C@@H](C)N[C@@H](C)C5)cc(C5CC5)c4)ncc3Cl)c[nH]c2c1 [TUS, Tuspetinib]
IC50 (TUS/R line 2 (MOLM-14)): 120 ± 29.4 nmol/L
main toxicity findings ([1]; dogs, repeat daily dose up to 4 weeks): leucocyte depletion, decreased thymus and spleen weights, and tremors
cardiovascular effects ([1]; single dose and 4-week dog toxicology studies): No treatment-related cardiovascular effects
IC50 (MOLM-14 cells (parental); growth inhibition, three independent experiments, read-out: IC50 (nmol/L), Mean ± SEM, MOLM-14 parental): 2.3 ± 0.6 nmol/L
GI50 (MOLM-14 cells (parental); mean ± SEM (Supplementary Table 6), read-out: GI50 (nM) Parental MOLM-14 (converted)): 2.3 ± 0.6 nM
GI50 (MOLM-14 cells (parental); mean ± SD (Supplementary Table 4), read-out: GI50): 2.9 ± 1.2 nM
IC50 (TUS/R MOLM-14 cells): 139 ± 38.6 nM
GI50 [2]: 2.5 to 56 nM
Neuropharmacology and respiratory function assessment [3]: no concerns
main target organ of toxicity ([3]; repeat daily dose up to 4 weeks): lymphoid organs
GI50 [4]: 16 nM
GI50 [5]: 56 nM
GI50 (Ba/F3 cells FLT3 WT; Ba/F3 FLT3 WT): < 9.1 nM
GI50 (Ba/F3 cells FLT3 WT; Mus musculus, BaF3, Ba/F3 FLT3 WT, read-out: GI50): 9.1 nM
GI50 (Ba/F3 cells FLT3 D835Y; BaF3, Ba/F3 FLT3 D835Y): < 9.1 nM
GI50 (Ba/F3 cells FLT3 D835Y; BaF3, Ba/F3 FLT3 D835Y, mean ± SD, read-out: GI50): 7.3 ± 3.5 nM
GI50 (Ba/F3 cells FLT3 ITD; BaF3, Ba/F3 FLT3 ITD): < 9.1 nM
GI50 (Ba/F3 cells FLT3 ITD; BaF3, Ba/F3 FLT3 ITD, mean ± SD, read-out: GI50): 2.5 ± 0.4 nM
metabolism by human liver microsomes [6]: metabolized by human liver microsomes
change in sensitivity, clone 1 [7, 11]: did not alter sensitivity
GI50 [7, 12]: 8.7 ± 3 nM
GI50 [8]: 69.9 ± 7.4 nM
change in sensitivity, clone 15 [9, 11]: did not alter sensitivity
GI50 [9, 12]: 7.7 ± 3.1 nM
GI50 (MOLM-13 cells): 5.2 ± 0.9 nM
Ki (CYP2C9): < 1000 nM
Ki (CYP2C8): < 1000 nM
GI50 [10]: 1.3 to 5.2 nM
